# According to US7772252B2, “Heterocyclic substituted carbonyl derivatives and their use as dopamine D3 receptor ligands” (Aventis Pharmaceuticals Inc., priority 2001, dated 2010):
# Biological target: T1, cloned human dopamine D3 receptors (Homo sapiens, UniProt P35462)
# T1 construct: expressed in transfected cells; membrane homogenate
# Test: [N-Methyl-3H]Spiroperidol binding to cloned human dopamine D3 receptors
# Details: Table 2; D3 receptor binding; read-out: d3Ki
# Method in brief: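 Stably transfected CHO cells expressing cloned human D3 receptor were used as membranes homogenized in 10% DMSO. Ligand was [N-methyl-3H]spiroperidol displacement.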
# T1 sequence (P35462 whole entry): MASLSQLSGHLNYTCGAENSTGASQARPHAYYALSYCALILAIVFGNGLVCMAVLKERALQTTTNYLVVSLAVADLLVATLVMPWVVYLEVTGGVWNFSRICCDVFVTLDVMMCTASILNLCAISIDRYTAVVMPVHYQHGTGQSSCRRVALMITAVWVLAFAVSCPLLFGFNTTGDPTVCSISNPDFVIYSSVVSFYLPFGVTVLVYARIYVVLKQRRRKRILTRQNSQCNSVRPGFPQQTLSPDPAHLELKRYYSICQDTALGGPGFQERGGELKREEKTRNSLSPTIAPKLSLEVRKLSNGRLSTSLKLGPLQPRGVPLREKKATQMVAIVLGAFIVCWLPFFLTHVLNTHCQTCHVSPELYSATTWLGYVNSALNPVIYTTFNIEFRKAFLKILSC
row,Ki [nM],Compound
1,7.29,O=C(CCCN1CCN(c2csc3cc(C(F)(F)F)ccc23)CC1)N1CCC(O)CC1 [compound 826812]
2,5.16,CC1CCCCN1C(=O)CCCN1CCN(c2csc3cc(C(F)(F)F)ccc23)CC1 (stereo not drawn) [compound 826813]
3,10.3,CC1CCN(C(=O)CCCN2CCN(c3csc4cc(C(F)(F)F)ccc34)CC2)CC1 [compound 826814]
4,31.7,CC1CCCN(C(=O)CCCN2CCN(c3csc4cc(C(F)(F)F)ccc34)CC2)C1 (stereo not drawn) [compound 826815]

# Same assay, conditions: read-out: d3Ki
row,Compound,Ki [nM]
1,CC1CCCC(NC(=O)CCCN2CCN(c3csc4cc(C(F)(F)F)ccc34)CC2)C1 (racemic) [compound 826807],43
2,O=C(CCCN1CCN(c2csc3cc(F)ccc23)CC1)NC1CCCC1 (racemic) [compound 826860],3.48
3,O=C(CCCN1CCN(c2csc3cc(C(F)(F)F)ccc23)CC1)N(CCO)C1CCCCC1 [compound 826810],86.7
4,CCOC(=O)C1CCN(C(=O)CCCN2CCN(c3csc4cc(C(F)(F)F)ccc34)CC2)CC1 [compound 826811],40.4
5,O=C(CCCN1CCN(c2csc3cc(C(F)(F)F)ccc23)CC1)N1CCC(N2CCCC2)CC1 [compound 826816],26.3
6,CC1CC(C)CN(C(=O)CCCN2CCN(c3csc4cc(C(F)(F)F)ccc34)CC2)C1 (stereo not drawn) [compound 826818],29.3
7,O=C(CCCN1CCN(c2csc3cc(C(F)(F)F)ccc23)CC1)NC1CCCC1 [compound 826820],52.8
8,O=C(CCCN1CCN(c2csc3cc(C(F)(F)F)ccc23)CC1)NC1CCCCC1 [compound 826821],70.1
9,CN(C)C1CCN(C(=O)CCCN2CCN(c3csc4cc(C(F)(F)F)ccc34)CC2)C1 (stereo not drawn) [compound 826823],19
10,CC[C@H]1CC[C@H](NC(=O)CCCN2CCN(c3csc4cc(F)ccc34)CC2)CC1 [compound 826846],17.6
11,CCN(C(=O)CCCN1CCN(c2csc3cc(F)ccc23)CC1)C1CCCCC1 [compound 826849],54.2
12,O=C(CCCN1CCN(c2csc3cc(F)ccc23)CC1)N(CCO)C1CCCCC1 [compound 826850],18.8

# Continued, values first:
row,Ki [nM],Compound
1,17.4,CN(C(=O)CCCN1CCN(c2csc3cc(C(F)(F)F)ccc23)CC1)C1CCCCC1 [compound 826808]
2,11.6,O=C(CCCN1CCN(c2csc3cc(C(F)(F)F)ccc23)CC1)N1CCCC1 [compound 826819]
3,2.79,CC1CCCN1C(=O)CCCN1CCN(c2csc3cc(C(F)(F)F)ccc23)CC1 (stereo not drawn) [compound 826822]
4,0.591,C[C@H]1CC[C@H](NC(=O)CCCN2CCN(c3csc4cc(F)ccc34)CC2)CC1 [compound 826844]
5,4.42,CCOC(=O)[C@H]1CC[C@H](NC(=O)CCCN2CCN(c3csc4cc(F)ccc34)CC2)CC1 [compound 826845]
6,1.01,CC1CCCC(NC(=O)CCCN2CCN(c3csc4cc(F)ccc34)CC2)C1 (stereo not drawn) [compound 826847]
7,4.35,CN(C(=O)CCCN1CCN(c2csc3cc(F)ccc23)CC1)C1CCCCC1 [compound 826848]
8,2.77,CCOC(=O)C1CCN(C(=O)CCCN2CCN(c3csc4cc(F)ccc34)CC2)CC1 [compound 826851]
9,3.54,O=C(CCCN1CCN(c2csc3cc(F)ccc23)CC1)N1CCC(O)CC1 [compound 826852]
10,0.128,CC1CCCCN1C(=O)CCCN1CCN(c2csc3cc(F)ccc23)CC1 (stereo not drawn) [compound 826853]
11,0.116,CC1CCN(C(=O)CCCN2CCN(c3csc4cc(F)ccc34)CC2)CC1 [compound 826854]
12,0.58,CC1CCCN(C(=O)CCCN2CCN(c3csc4cc(F)ccc34)CC2)C1 (stereo not drawn) [compound 826855]
13,1.8,O=C(CCCN1CCN(c2csc3cc(F)ccc23)CC1)N1CCC(N2CCCC2)CC1 [compound 826856]
14,3.71,CC1CC(C)CN(C(=O)CCCN2CCN(c3csc4cc(F)ccc34)CC2)C1 (stereo not drawn) [compound 826858]
15,3.53,O=C(CCCN1CCN(c2csc3cc(F)ccc23)CC1)N1CCCC1 [compound 826859]
16,2.89,O=C(CCCN1CCN(c2csc3cc(F)ccc23)CC1)NC1CCCCC1 [compound 826861]
17,0.951,CC1CCCN1C(=O)CCCN1CCN(c2csc3cc(F)ccc23)CC1 (stereo not drawn) [compound 826862]
